The results in this text go back to paper PMC3742671, “Structure, Antimicrobial Activities and Mode of Interaction with Membranes of Bovel Phylloseptins from the Painted-Belly Leaf Frog, Phyllomedusa sauvagii” (PLoS ONE, 2013).

The test system of data set [1] is A. baumannii ATCC 19606. The conditions noted are these: LB medium (pH 7), absorbance at 630 nm; average of three independent experiments in triplicates. How it is done:
(§1) The effect of phylloseptins-S was evaluated against several bacterial strains and yeasts (Table 2). Bacteria were cultured in Luria-Bertani broth (LB), whereas yeasts were cultured in Yeast Peptone Dextrose medium (YPD), and minimal inhibitory concentrations (MICs) were determined by measuring the absorbance at 630 nm in 96-well microtitration plates, as described previously. Leishmanicidal activity of phylloseptins-S was also examined against promastigotes of different Leishmania species: Leishmania infantum (strain MHOM/MA/67/ITMAP-263), L. major (MHOM/SU/73/5-ASKH) and L. braziliensis (MHOM/BR/75/M2904). Culture of promastigotes and determination of the growth inhibition were performed as previously described, [22], [23].
(§2) The antimicrobial activity of synthetic PLS-S1 to -S5 was assayed in LB medium (pH 7) against several Gram-negative and Gram-positive bacteria, and multi-drug resistant S. aureus strains. […] The antiparasitic activity of PLSs was also determined against three Leishmania species (L. infantum, L. major, and L. braziliensis). […] Because PLS-S3 contains histidines as basic residues and that approximately only 11% of these residues are positively charged at pH 7, we have evaluated the antibacterial activity at pH 5 at which His residues are predominantly positively charged (∼91%).

Data set [2] has as its system E. coli ATCC 25922. The conditions noted are these: for MIC: ATCC 25922, pH 7. How it is done: as §1, §2
Data set [3] relates to E. coli ML-35p. As to conditions: LB medium (pH 7), absorbance at 630 nm; average of three independent experiments in triplicates. The method, then:
as §1, §2

Data set [4] concerns E. faecalis ATCC 29212. As to conditions: LB medium (pH 7), absorbance at 630 nm; average of three independent experiments in triplicates. The method, then:
as §1, §2

The subject of data set [5] is K. pneumoniae ATCC 13883. As to conditions: LB medium (pH 7), absorbance at 630 nm; average of three independent experiments in triplicates. How it is done: as §1, §2
Data set [6] deals with P. aeruginosa ATCC 27853. As to conditions: LB medium (pH 7), absorbance at 630 nm; average of three independent experiments in triplicates. How it is done: as §1, §2
Data set [7] relates to S. aureus ATCC 25923. As to conditions: LB medium (pH 7), absorbance at 630 nm, 96-well plates; average of three independent experiments in triplicates. How it is done:
as §1, §2

For data set [8], the system named is S. aureus ATCC 43300. The conditions noted are these: strain resistant to methicillin and oxacillin; LB medium (pH 7), absorbance at 630 nm; average of three independent experiments in triplicates. The method, then:
as §1, §2

Data set [9] has as its system S. aureus ATCC BAA-44. The conditions noted are these: multidrug resistant strain; LB medium (pH 7), absorbance at 630 nm; average of three independent experiments in triplicates. How it is done: as §1, §2
The subject of data set [10] is S. aureus ST1065. As to conditions: LB medium (pH 7), absorbance at 630 nm; average of three independent experiments in triplicates. The method, then:
as §1, §2

The subject of data set [11] is S. pyogenes ATCC 19615. As to conditions: LB medium (pH 7), absorbance at 630 nm; average of three independent experiments in triplicates. The method, then: as §1, §2
Data set [12] has as its system C. parapsilosis ATCC 22019. The class given is cell-based. The method, then: as §1
Data set [13] concerns L. braziliensis (MHOM/BR/75/M2904) promastigotes. Type of data set: cell-based. How it is done:
as §1

For data set [14], the system named is L. major (MHOM/SU/73/5-ASKH) promastigotes. The class given is cell-based. The method, then: as §1
The test system of data set [15] is S. cerevisiae. Type of data set: cell-based. How it is done: as §1
Data set [16] has as its system Leishmania infantum (strain MHOM/MA/67/ITMAP-263) promastigotes. The class given is cell-based. The method, then:
as §1
Figure 3 Activity of phylloseptins-S against Leishmania infantum promastigotes. IC50 values were determined from a dose-response inhibition fit using GraphPad Prism 5.0 (Table 2). Results represent the mean ± S.E.M. and are representative of three experiments carried out in triplicates.

Data set [17] concerns human erythrocytes. Type of data set: cell-based. How it is done: (§3) Hemolytic assays were performed using fresh human erythrocytes from a healthy donor according to a previously described protocol. Cytotoxic activity of PLS-S was also determined on the human leukemia monocyte cell line THP-1. 80 µL of 6.25×10^5 cells/mL were incubated for 72 h with 20 µL of peptide (3 to 50 µM, final concentrations) at 37°C and 5% CO2 in RPMI medium supplemented with 10% FCS. The cell viability was determined by adding 10 µL of methylthiazolyldiphenyl-tetrazolium bromide (MTT, 10 mg/mL) to the plate. After 4h incubation at 37°C, formazan was solubilized with 100 µL of a solution containing 50% isopropanol and 10% SDS, and the absorbance was measured at 570 nm. The lytic concentration 50 (LC50), which correspond to the peptide concentration producing 50% lysis, was determined with the GraphPad Prism® 5.0 software. Results were expressed as the mean of three independent experiments performed in triplicates.

Data set [18] concerns human leukemia monocyte cell line THP-1. Put plainly: Cytotoxic activity, MTT. Type of data set: cell-based. The conditions noted are these: for IC50: 72 h, 37°C, RPMI + 10% FCS, peptide 3 to 50 µM, MTT read at 570 nm, average of three independent experiments in triplicates; for LC50: value stated jointly for the three peptides. The method, then: as §3
The nature of data set [19]: Circular dichroism spectroscopy in SDS micelles. Type of data set: physicochemical. As to conditions: CD, peptide 30 µM in 80 mM SDS. The method, then: The far-ultraviolet circular dichroism (CD) spectra were recorded as described. Phylloseptins-S (30 µM) were solubilized either in 80 mM sodium dodecyl sulfate (SDS) or in phosphate-buffered saline (PBS: 10 mM phosphate, pH 7.3) containing 1 mg/mL of large unilamellar vesicles (LUVs) of 1,2-dimyristoyl-sn-glycero-3-phosphocholine (DMPC) and 1,2-dimyristoyl-sn-glycero-3-phosphoglycerol (DMPG) (3∶1 mol/mol). DMPC and DMPG were purchased from Avanti Polar Lipids, Inc. Each spectrum was the average of four scans. CD measurements are reported as Δ/n, where Δ is the dichroic increment and n is the number of residues in the peptide.
Figure 6 Circular dichroism spectra of synthetic phylloseptins-S (30 µM). (A) DMPC/DMPG (3∶1) large unilamellar vesicles in PBS (1 mg/mL). (B) 80 mM SDS. CD measurements are reported as the dichroic increment (Δε) per residue.

Like-named read-outs stand apart in the source and are kept apart here. Ends that are not written are not given here.

What is called MIC is the lowest concentration found to suppress growth. By IC50 is commonly meant the midpoint of a concentration-inhibition curve. For orientation: LC50 means the concentration lethal to half of the exposed cells or organisms. For the substance FLSLIPHIVSGVASIAKHF-NH2 [PLS-S1], the MIC in [1] is 6.25 µM; in data set [2], 70 µM; in data set [3], over 100 µM; in data set [4] it was 25 µM; in data set [5] it was over 100 µM; in data set [6] it was over 100 µM. The minimum inhibitory concentration (MIC) in data set [7] came to 6.25 µM; in data set [8], 6.25 µM; in data set [9], 6.25 µM; in [10] it was 6.25 µM; in data set [11], 3.12 µM; in data set [12], 100 µM. The MIC in data set [15] came to 12.5 µM. Besides, the “MIC at pH 5” value in [2] (ATCC 25922, pH 5) is 12.5 µM. The IC50 was 15.3 µM in [13], 12.6 µM in data set [14], 16.5 µM in [16] and 23 µM in [18]. The “LC50 (peptide concentration producing 50% lysis)” value in data set [17] was 39 µM. This substance showed an LC50 in [18] of 23 µM. Besides, the helix content in data set [19] is on record as 96%.

On to FLSLIPHIVSGVASLAKHF-NH2 [PLS-S2], for which the MIC in data set [1] was 6.25 µM; in data set [2], 25 µM; in data set [3] it was 30 µM; in data set [4] it was 25 µM; in data set [5] it was 25 µM; in data set [6], 200 µM. The MIC in data set [7] came out at 6.25 µM; in data set [8], 6.25 µM; in data set [9] it was 6.25 µM; in data set [10], 6.25 µM; in data set [11] it was 1.56 µM; in data set [12], 50 µM. The substance also yielded an MIC in data set [15] (YPD medium, absorbance at 630 nm, average of three independent experiments in triplicates) of 6.25 µM. Further, the IC50 stood at 15 µM in [13], 13.3 µM in [14], 18.5 µM in [16] and 22.5 µM in [18]. For the same substance, the “LC50 (peptide concentration producing 50% lysis)” value in [17] is 25 µM. In [18], this substance came in with an LC50 of 23 µM. This substance gave a helix content in [19] of 65%.

Take FLSMIPHIVSGVAALAKHL-NH2 [PLS-S4]: the MIC turned out to be 6.25 µM in data set [1]; 25 µM in [2]; 25 µM in data set [3]; 50 µM in data set [4]; 25 µM in [5]; 100 µM in data set [6]. Moreover, the MIC in data set [7] is reported as 6.25 µM; in data set [8], 6.25 µM; in data set [9] it was 6.25 µM; in data set [10], 6.25 µM; in data set [11], 3.12 µM; in [12] it was 50 µM. This substance yielded an MIC in [15] of 12.5 µM. Also, the IC50 was 17.2 µM in data set [13], 18 µM in data set [14], 22 µM in data set [16] and 23 µM in data set [18]. Besides, the “LC50 (peptide concentration producing 50% lysis)” value in data set [17] came out at 33 µM. The same substance displayed an LC50 in [18] of 23 µM. In data set [19], this substance came in with a helix content of 59%.
